Assays:
Type in all cases: cell-based
ADR-RES = assay: NCI panel growth inhibition, ADR-RES; conditions: Breast Cancer
From the text: (§1) Compound I has also been tested in a battery of tumor cell assays known as the NCI panel.

ACHN = assay: NCI panel growth inhibition, ACHN; conditions: Homo sapiens, Renal
From the text: as §1

PC-3 = assay: NCI panel growth inhibition, PC-3; conditions: Homo sapiens, Prostate
From the text: as §1

SF-268 = assay: NCI panel growth inhibition, SF-268; conditions: Homo sapiens, CNS Cancer
From the text: as §1

DU-145 = assay: NCI panel growth inhibition, DU-145; conditions: Homo sapiens, Prostate
From the text: as §1

NCI-H322M = assay: NCI panel growth inhibition, NCI-H322M; conditions: Homo sapiens, Non-Small Cell Lung Cancer
From the text: as §1

HS 578T = assay: NCI panel growth inhibition, HS 578T; conditions: Homo sapiens, Breast Cancer
From the text: as §1

MALME-3M = assay: NCI panel growth inhibition, MALME-3M; conditions: Homo sapiens, Melanoma
From the text: as §1

MDA-MB-231 = assay: NCI panel growth inhibition, MDA-MB-231; conditions: Homo sapiens, Breast Cancer
From the text: as §1

COLO 205 = assay: NCI panel growth inhibition, COLO 205; conditions: Homo sapiens, Colon Cancer
From the text: as §1

SNB-75 = assay: NCI panel growth inhibition, SNB-75; conditions: Homo sapiens, CNS Cancer
From the text: as §1

HCC-2998 = assay: NCI panel growth inhibition, HCC-2998; conditions: Homo sapiens, Colon Cancer
From the text: as §1

KM12 = assay: NCI panel growth inhibition, KM12; conditions: Homo sapiens, Colon Cancer
From the text: as §1

OVCAR-3 = assay: NCI panel growth inhibition, OVCAR-3; conditions: Homo sapiens, Ovarian
From the text: as §1

RXF 393 = assay: NCI panel growth inhibition, RXF 393; conditions: Homo sapiens, Renal
From the text: as §1

[1] = system: NCI panel cancer cell lines; assay: NCI panel of tumor cell assays, summary over cell lines; conditions: all NCI panel cell lines
From the text: Compound I has also been tested in a battery of tumor cell assays known as the NCI panel. […] Using this measure, 1.8% of cell lines were particularly sensitive to Compound B at this level, while 39% were particularly sensitive to Compound I at the same concentration. […] Loss of PTEN activity often occurs in cancers, and enhances the sensitivity of a tumor to PI3K inhibitors. […] The following Table summarizes the cell lines found to be sensitive to Compound I and the known mutations in those cell lines.

BT-549 = assay: NCI panel growth inhibition, BT-549; conditions: Homo sapiens, Breast Cancer
From the text: as §1

OVCAR-4 = assay: NCI panel growth inhibition, OVCAR-4; conditions: Homo sapiens, Ovarian
From the text: as §1

TK-10 = assay: NCI panel growth inhibition, TK-10; conditions: Homo sapiens, Renal
From the text: as §1

LOX IMVI = assay: NCI panel growth inhibition, LOX IMVI; conditions: Homo sapiens, Melanoma
From the text: as §1

OVCAR-8 = assay: NCI panel growth inhibition, OVCAR-8; conditions: Homo sapiens, Ovarian
From the text: as §1

NCI-H460 = assay: NCI panel growth inhibition, NCI-H460; conditions: Homo sapiens, Non-Small Cell Lung Cancer
From the text: as §1

SN12C = assay: NCI panel growth inhibition, SN12C; conditions: Homo sapiens, Renal
From the text: as §1

EKVX = assay: NCI panel growth inhibition, EKVX; conditions: Homo sapiens, Non-Small Cell Lung Cancer
From the text: as §1

HT29 = assay: NCI panel growth inhibition, HT29; conditions: Homo sapiens, HT-29, Colon Cancer
From the text: as §1

SK-MEL-28 = assay: NCI panel growth inhibition, SK-MEL-28; conditions: Homo sapiens, Melanoma
From the text: as §1

786-0 = assay: NCI panel growth inhibition, 786-0; conditions: Homo sapiens, Renal
From the text: as §1

OVCAR-5 = assay: NCI panel growth inhibition, OVCAR-5; conditions: Homo sapiens, Ovarian
From the text: as §1

IGROV1 = assay: NCI panel growth inhibition, IGROV1; conditions: Homo sapiens, IGROV-1, Ovarian
From the text: as §1

UACC-62 = assay: NCI panel growth inhibition, UACC-62; conditions: Homo sapiens, Melanoma
From the text: as §1

MDA-MB-435 = assay: NCI panel growth inhibition, MDA-MB-435; conditions: Homo sapiens, Breast Cancer
From the text: as §1

SK-MEL-5 = assay: NCI panel growth inhibition, SK-MEL-5; conditions: Homo sapiens, Melanoma
From the text: as §1

U251 = assay: NCI panel growth inhibition, U251; conditions: Homo sapiens, U-251, CNS Cancer
From the text: as §1

NCI-H23 = assay: NCI panel growth inhibition, NCI-H23; conditions: Homo sapiens, Non-Small Cell Lung Cancer
From the text: as §1

SF-295 = assay: NCI panel growth inhibition, SF-295; conditions: Homo sapiens, CNS Cancer
From the text: as §1

A498 = assay: NCI panel growth inhibition, A498; conditions: Homo sapiens, Renal
From the text: as §1

CAKI-1 = assay: NCI panel growth inhibition, CAKI-1; conditions: Homo sapiens, Renal
From the text: as §1

MDA-MB-468 = assay: NCI panel growth inhibition, MDA-MB-468; conditions: Homo sapiens, Breast Cancer
From the text: as §1

UO-31 = assay: NCI panel growth inhibition, UO-31; conditions: Homo sapiens, Renal
From the text: as §1

UACC-257 = assay: NCI panel growth inhibition, UACC-257; conditions: Homo sapiens, Melanoma
From the text: as §1

SK-OV-3 = assay: NCI panel growth inhibition, SK-OV-3; conditions: Homo sapiens, Ovarian
From the text: as §1

NCI-H226 = assay: NCI panel growth inhibition, NCI-H226; conditions: Homo sapiens, Non-Small Cell Lung Cancer
From the text: as §1

M14 = assay: NCI panel growth inhibition, M14; conditions: Homo sapiens, Melanoma
From the text: as §1

T-47D = assay: NCI panel growth inhibition, T-47D; conditions: Homo sapiens, T47D, Breast Cancer
From the text: as §1

SW-620 = assay: NCI panel growth inhibition, SW-620; conditions: Homo sapiens, Colon Cancer
From the text: as §1

SNB-19 = assay: NCI panel growth inhibition, SNB-19; conditions: Homo sapiens, CNS Cancer
From the text: as §1

MCF7 = assay: NCI panel growth inhibition, MCF7; conditions: Homo sapiens, Breast Cancer
From the text: as §1

SK-MEL-2 = assay: NCI panel growth inhibition, SK-MEL-2; conditions: Homo sapiens, Melanoma
From the text: as §1

A549 = assay: NCI panel growth inhibition, A549; conditions: Homo sapiens, Non-Small Cell Lung Cancer
From the text: as §1

HOP-92 = assay: NCI panel growth inhibition, HOP-92; conditions: Homo sapiens, Non-Small Cell Lung Cancer
From the text: as §1

SF-539 = assay: NCI panel growth inhibition, SF-539; conditions: Homo sapiens, CNS Cancer
From the text: as §1

HCT-15 = assay: NCI panel growth inhibition, HCT-15; conditions: Homo sapiens, Colon Cancer
From the text: as §1

NCI-H522 = assay: NCI panel growth inhibition, NCI-H522; conditions: Homo sapiens, Non-Small Cell Lung Cancer
From the text: as §1

HCT-116 = assay: NCI panel growth inhibition, HCT-116; conditions: Homo sapiens, Colon Cancer
From the text: as §1

HOP-62 = assay: NCI panel growth inhibition, HOP-62; conditions: Homo sapiens, Non-Small Cell Lung Cancer
From the text: as §1

CC[C@H](Nc1ncnc2[nH]cnc12)c1nc2cccc(F)c2c(=O)n1-c1ccccc1 [Compound B, reference compound]
GI50 (ADR-RES): 77.9 µM | GI50 (ACHN): 24.4 µM | GI50 (PC-3): 12 µM | GI50 (SF-268): 29.8 µM | GI50 (DU-145): 43.8 µM | GI50 (NCI-H322M): 32.2 µM | GI50 (HS 578T): 6.91 µM | GI50 (MALME-3M): 31.6 µM | GI50 (MDA-MB-231): 100 µM | GI50 (COLO 205): 30.1 µM | GI50 (SNB-75): 2.96 µM | GI50 (HCC-2998): 53.3 µM | GI50 (KM12): 54.1 µM | GI50 (OVCAR-3): 15.5 µM | GI50 (RXF 393): 74.2 µM | Cell lines particularly sensitive (GI50 of 2 micromolar or less) [1]: 1.8% | GI50 (BT-549): 14.3 µM | GI50 (OVCAR-4): 100 µM | GI50 (TK-10): 31.7 µM | GI50 (LOX IMVI): 31.1 µM | GI50 (OVCAR-8): 96 µM | GI50 (NCI-H460): 34.7 µM | GI50 (SN12C): 11 µM | GI50 (EKVX): 28.2 µM | GI50 (HT29): 39.1 µM | GI50 (SK-MEL-28): 38.6 µM | GI50 (786-0): 5.48 µM | GI50 (OVCAR-5): 40.1 µM | GI50 (IGROV1): 3.54 µM | GI50 (UACC-62): 4.2 µM | GI50 (MDA-MB-435): 16.4 µM | GI50 (SK-MEL-5): 32.9 µM | GI50 (U251): 70.4 µM | GI50 (NCI-H23): 100 µM | GI50 (SF-295): 8.18 µM | GI50 (A498): 2.38 µM | GI50 (CAKI-1): 13.4 µM | GI50 (MDA-MB-468): 13.6 µM | GI50 (UO-31): 5.32 µM | GI50 (UACC-257): 33.5 µM | GI50 (SK-OV-3): 13.8 µM | GI50 (NCI-H226): 100 µM | GI50 (M14): 58.4 µM | GI50 (T-47D): 3.18 µM | GI50 (SW-620): 86.4 µM | GI50 (SNB-19): 54.8 µM | GI50 (MCF7): 7.08 µM | GI50 (SK-MEL-2): 100 µM | GI50 (A549): 50.4 µM | GI50 (HOP-92): 34.8 µM | GI50 (SF-539): 28.6 µM | GI50 (HCT-15): 48.4 µM | GI50 (NCI-H522): 52.7 µM | GI50 (HCT-116): 54.3 µM | GI50 (HOP-62): 39.7 µM
